Data on 32 compounds can be found in US9708311B2, “Benzimidazole derivatives as EP4 antagonists” (BAYER PHARMA AKTIENGESELLSCHAFT, priority 2012, dated 2017).

human EP4 receptor, sequence (P35408 whole entry): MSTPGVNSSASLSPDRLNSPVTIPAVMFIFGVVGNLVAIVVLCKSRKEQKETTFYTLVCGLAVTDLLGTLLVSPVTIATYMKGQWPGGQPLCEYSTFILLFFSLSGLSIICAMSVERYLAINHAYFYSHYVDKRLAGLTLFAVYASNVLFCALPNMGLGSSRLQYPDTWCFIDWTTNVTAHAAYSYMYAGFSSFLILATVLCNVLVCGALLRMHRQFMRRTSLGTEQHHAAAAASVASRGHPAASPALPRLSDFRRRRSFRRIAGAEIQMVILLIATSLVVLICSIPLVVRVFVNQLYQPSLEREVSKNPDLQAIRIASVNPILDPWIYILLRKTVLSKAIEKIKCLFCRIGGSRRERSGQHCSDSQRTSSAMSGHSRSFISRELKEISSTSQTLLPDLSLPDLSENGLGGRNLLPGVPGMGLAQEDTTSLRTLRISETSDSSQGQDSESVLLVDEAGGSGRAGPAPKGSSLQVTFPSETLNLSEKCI

The assay has as its target human EP4 receptor (Homo sapiens (Human), UniProt P35408). The experiment in a line: Test for antagonism of the human EP4 receptor signal (cAMP HTRF). Format: cell-based. As to conditions: cells expressing hEP4, PGE2 at EC80 (0.4 nM), cAMP TR-FRET; read-out: Antagonism hEP4 IC50. From the text:
The binding of the agonist prostaglandin E2 (PGE2) to the EP4 subtype of human hPGE2-R (hEP4-R) induces the activation of membrane-bound adenylate cyclases and thus the formation of cAMP. In the presence of the phosphodiesterase inhibitor IBMX, this cAMP accumulates intracellularly and is employed in a competitive detection procedure after cell lysis. In this procedure, it competes with a fluorescence-labelled cAMP (cAMP-d2) for binding to an Eu cryptate-labelled anti-cAMP antibody. In the absence of cellular cAMP, a complex is formed between the Eu cryptate-labelled anti-cAMP antibody and the cAMP-d2 molecule, which after excitation at 337 nm makes possible an energy transfer based on FRET (fluorescence resonance energy transfer) to the cAMP-d2 tracer and leads to a long-lasting fluorescence signal (emission at 665 and 620 nm). This signal is time-resolved, i.e. measured in a suitable measuring apparatus after decay of the background fluorescence (time resolved; TR-FRET). The wave ratio determination (emission 665 nm/emission 620 nm*10000) moreover makes it possible to standardize individual measurement differences in the added amounts of the detection reagents.
By means of prostaglandin E2 administration and increase in the intracellular cAMP, a lowering of the FRET signal occurs, which in the case of an antagonistic substance action increases again.
A further 20 min at room temperature later, the cell lysate is measured according to the manufacturer's instructions in a TR-FRET-suitable measuring apparatus (compare cAMP HTRF assay kit: Cisbio International 62AM6PEJ high range)
For the compound `CCn1c2ccccc2c2cc(-c3nc4cc(C(C)(C)O)ccc4n3CCOC)ccc21` [Example 101, 2-[2-(9-Ethyl-9H-carbazol-3-yl)-1-(2-methoxyethyl)-1H-benzimidazol-5-yl]propan-2-ol], the IC50 is 989 nM.

On to `CCn1c2ccccc2c2cc(-c3nc4cc(C(=O)NS(=O)(=O)c5ccccc5OC)ccc4n3CCOC)ccc21` [Example 52, 2-(9-Ethyl-9H-carbazol-3-yl)-1-(2-methoxyethyl)-N-[(2-methoxyphenyl)sulphonyl]-1H-benzimidazole-5-carboxamide], for which the IC50 was determined as 35.9 nM.

Consider `CCn1c2ccccc2c2cc(-c3nc4cc(C(=O)O)ccc4n3CC3CC3)cnc21` [Example 14, 1-(Cyclopropylmethyl)-2-(9-ethyl-9H-pyrido[2,3-b]indol-3-yl)-1H-benzimidazole-5-carboxylic acid], for which the IC50 came out at 33.4 nM.

Consider `CCn1c2ccccc2c2cc(-c3nc4cc(C(=O)NS(=O)(=O)Cc5ccc(Cl)cc5)ccc4n3CCOC)ccc21` [Example 64, N-[(4-Chlorobenzyl)sulphonyl]-2-(9-ethyl-9H-carbazol-3-yl)-1-(2-methoxyethyl)-1H-benzimidazole-5-carboxamide], for which the IC50 is 138 nM.

Take `CCn1c2ccccc2c2cc(-c3nc4cc(S(N)(=O)=O)ccc4n3CCOC)ccc21` [Example 127, 2-(9-Ethyl-9H-carbazol-3-yl)-1-(2-methoxyethyl)-1H-benzimidazole-5-sulphonamide]: the IC50 came to 305 nM.

As for `CCn1c2ccccc2c2cc(-c3nc4cc(C#N)ccc4n3CCOC)ccc21` [Example 44, 2-(9-Ethyl-9H-carbazol-3-yl)-1-(2-methoxyethyl)-1H-benzimidazole-5-carbonitrile], the IC50 amounted to 421 nM.

Turning to `CCn1c2ccccc2c2cc(-c3nc4cc(C(=O)O)ccc4n3CC3COC3)ccc21` [Example 123, 2-(9-Ethyl-9H-carbazol-3-yl)-1-(oxetan-3-ylmethyl)-1H-benzimidazole-5-carboxylic acid], the IC50 was found to be 51.5 nM.

Turning to `CCn1c2ccccc2c2cc(-c3nc4cc(C(=O)N5CCC5)ccc4n3CCOC)ccc21` [Example 30, Azetidin-1-yl[2-(9-ethyl-9H-carbazol-3-yl)-1-(2-methoxyethyl)-1H-benzimidazol-5-yl]methanone], the IC50 is 30.1 nM.

Turning to `CCn1c2ccccc2c2cc(-c3nc4cc(-c5n[nH]c(=O)o5)ccc4n3CCOC)ccc21` [Example 106, 5-[2-(9-Ethyl-9H-carbazol-3-yl)-1-(2-methoxyethyl)-1H-benzimidazol-5-yl]-1,3,4-oxadiazol-2(3H)-one], the IC50 is 43.7 nM.

For the compound `CCn1c2ccccc2c2cc(-c3nc4cc(C(=O)NS(=O)(=O)Cc5ccc(F)cc5)ccc4n3CCOC)ccc21` [Example 58, 2-(9-Ethyl-9H-carbazol-3-yl)-N-[(4-fluorobenzyl)sulphonyl]-1-(2-methoxyethyl)-1H-benzimidazole-5-carboxamide], the IC50 is 174 nM.

`CCn1c2ccccc2c2cc(-c3nc4cc(C(=O)NS(=O)(=O)Cc5c(C)cccc5Cl)ccc4n3CCOC)ccc21` [Example 67, N-[(2-Chloro-6-methylbenzyl)sulphonyl]-2-(9-ethyl-9H-carbazol-3-yl)-1-(2-methoxy-ethyl)-1H-benzimidazole-5-carboxamide]: the IC50 amounted to 36.9 nM.

Turning to `CCn1c2ccccc2c2cc(-c3nc4c(F)c(C(=O)O)ccc4n3CC3CC3)ccc21` [Example 115, 1-(Cyclopropylmethyl)-2-(9-ethyl-9H-carbazol-3-yl)-4-fluoro-1H-benzimidazole-5-carboxylic acid], the IC50 stood at 11.6 nM.

`CCn1c2ccccc2c2cc(-c3nc4cc(C(=O)NCCN5CCCC5)ccc4n3CCOC)ccc21` [Example 87, 2-(9-Ethyl-9H-carbazol-3-yl)-1-(2-methoxyethyl)-N-[2-(pyrrolidin-1-yl)ethyl]-1H-benzimidazole-5-carboxamide]: the IC50 was found to be 209 nM.

In the case of `CCn1c2ccccc2c2cc(-c3nc4cc(C(=O)OC)ccc4n3CC3CC3)ccc21` [Example 5, Methyl 1-(cyclopropylmethyl)-2-(9-ethyl-9H-carbazol-3-yl)-1H-benzimidazole-5-carboxylate], the IC50 stood at 404 nM.

For `CCn1c2ccccc2c2cc(-c3nc4cc(C(=O)O)c(C)cc4n3CCOC)ccc21` [Example 111, 2-(9-Ethyl-9H-carbazol-3-yl)-1-(2-methoxyethyl)-6-methyl-1H-benzimidazole-5-carboxylic acid], the IC50 worked out at 612 nM.

`CCn1c2ccccc2c2cc(-c3nc4cc(C(=O)O)ccc4n3CCO)ccc21` [Example 91, 2-(9-Ethyl-9H-carbazol-3-yl)-1-(2-hydroxyethyl)-1H-benzimidazole-5-carboxylic acid]: the IC50 is 113 nM.

Turning to `CCn1c2ccccc2c2cc(-c3nc4cc(C(=O)NS(=O)(=O)C5(C)CC5)ccc4n3CCOC)ccc21` [Example 40, 2-(9-Ethyl-9H-carbazol-3-yl)-1-(2-methoxyethyl)-N-[(1-methylcyclopropyl)sulphonyl]-1H-benzimidazole-5-carboxamide], the half-maximal inhibitory concentration (IC50) turned out to be 78.3 nM.

As for `CCn1c2ccccc2c2cc(-c3nc4cc(C(=O)O)ccc4n3C(C)C)ccc21` [Example 93, 2-(9-Ethyl-9H-carbazol-3-yl)-1-isopropyl-1H-benzimidazole-5-carboxylic acid], the IC50 was determined as 733 nM.

On to `CCn1c2ccccc2c2cc(-c3nc4cc(C(N)=O)ccc4n3CCOC)ccc21` [Example 82, 2-(9-Ethyl-9H-carbazol-3-yl)-1-(2-methoxyethyl)-1H-benzimidazole-5-carboxamide], for which the IC50 was 134 nM.

Take `CCn1c2ccccc2c2cc(-c3nc4cc(C(=O)O)ccc4n3C[C@H](O)COC)ccc21` [Example 135, 2-(9-Ethyl-9H-carbazol-3-yl)-1-[(2S)-2-hydroxy-3-methoxypropyl]-1H-benzimidazole-5-carboxylic acid]: the IC50 was determined as 340 nM.

For `CCn1c2ccccc2c2cc(-c3nc4cc(C(=O)N5CCC5)ccc4n3CC3CC3)ccc21` [Example 80, Azetidin-1-yl[1-(cyclopropylmethyl)-2-(9-ethyl-9H-carbazol-3-yl)-1H-benzimidazol-5-yl]-methanone], the IC50 worked out at 68.3 nM.

For the compound `COCCn1c(-c2ccc3c(c2)c2ccccc2n3CC2CC2)nc2cc(C(=O)O)ccc21` [Example 36, 2-[9-(Cyclopropylmethyl)-9H-carbazol-3-yl]-1-(2-methoxyethyl)-1H-benzimidazole-5-carboxylic acid], the IC50 came to 13.1 nM.

In the case of `C=CCn1c2ccccc2c2cc(-c3nc4cc(C(=O)O)ccc4n3CCOC)ccc21` [Example 96, 2-(9-Allyl-9H-carbazol-3-yl)-1-(2-methoxyethyl)-1H-benzimidazole-5-carboxylic acid], the IC50 is 16.5 nM.

Take `CCOC(=O)c1ccc2c(c1)nc(-c1ccc3c(c1)c1ccccc1n3CCOC)n2CCOC` [Example 97, Ethyl 1-(2-methoxyethyl)-2-[9-(2-methoxyethyl)-9H-carbazol-3-yl]-1H-benzimidazole-5-carboxylate]: the 50% inhibitory concentration (IC50) was 412 nM.

For `CCn1c2ccccc2c2cc(-c3nc4cc(C(=O)N(C)C)ccc4n3CC3CC3)ccc21` [Example 25, 1-(Cyclopropylmethyl)-2-(9-ethyl-9H-carbazol-3-yl)-N,N-dimethyl-1H-benzimidazole-5-carboxamide], the IC50 worked out at 86.3 nM.

Turning to `CCn1c2ccccc2c2cc(-c3nc4cc(C(=O)O)ccc4n3CC3CC3)ccc21` [Example 6, 1-(Cyclopropylmethyl)-2-(9-ethyl-9H-carbazol-3-yl)-1H-benzimidazole-5-carboxylic acid], the IC50 amounted to 14.4 nM.

Regarding `CCn1c2ccccc2c2cc(-c3nc4cc(C(=O)NCCN(C)C)ccc4n3CCOC)ccc21` [Example 86, N-[2-(Dimethylamino)ethyl]-2-(9-ethyl-9H-carbazol-3-yl)-1-(2-methoxyethyl)-1H-benzimidazole-5-carboxamide], the 50% inhibitory concentration (IC50) was found to be 245 nM.

Take `C=CCn1c(-c2ccc3c(c2)c2ccccc2n3CC)nc2cc(C(N)=O)ccc21` [Example 89, 1-Allyl-2-(9-ethyl-9H-carbazol-3-yl)-1H-benzimidazole-5-carboxamide]: the IC50 was 3640 nM.

Consider `CCn1c2ccccc2c2cc(-c3nc4c(C)c(C(=O)O)ccc4n3CC3CC3)cnc21` [Example 107, 1-(Cyclopropylmethyl)-2-(9-ethyl-9H-pyrido[2,3-b]indol-3-yl)-4-methyl-1H-benzimidazole-5-carboxylic acid], for which the IC50 stood at 433 nM.

Consider `CCn1c2ccccc2c2cc(-c3nc4cc(C(=O)N5CCNC(=O)C5)ccc4n3CC3CC3)ccc21` [Example 28, 4-{[1-(Cyclopropylmethyl)-2-(9-ethyl-9H-carbazol-3-yl)-1H-benzimidazol-5-yl]carbonyl}-piperazin-2-one], for which the IC50 stood at 122 nM.

For `CCn1c2ccccc2c2cc(-c3nc4cc(C(=O)NS(=O)(=O)CCc5cccc(OC)c5)ccc4n3CCOC)ccc21` [Example 69, 2-(9-Ethyl-9H-carbazol-3-yl)-1-(2-methoxyethyl)-N-{[2-(3-methoxyphenyl)ethyl]-sulphonyl}-1H-benzimidazole-5-carboxamide], the IC50 was 155 nM.

`CCn1c2ccncc2c2cc(-c3nc4cc(C(=O)O)ccc4n3CC3CC3)ccc21` [Example 109, 1-(Cyclopropylmethyl)-2-(5-ethyl-5H-pyrido[4,3-b]indol-8-yl)-1H-benzimidazole-5-carboxylic acid]: the IC50 worked out at 178 nM.

The term IC50 denotes the point on the concentration scale where inhibition reaches its midpoint.
